Settings: Liquid, Ebulliometric method (Recirculating still)

CC#N [acetonitrile]
Settings	vapor or sublimation pressure [kPa]
277.92 K	4.323
278.62 K	4.49
281.57 K	5.247
285.38 K	6.385
287.67 K	7.165
290.65 K	8.296
292.75 K	9.182
295.78 K	10.6
300.82 K	13.37
303.81 K	15.27
309.64 K	19.64
315.43 K	24.97
321.12 K	31.31
325.02 K	36.39
331.27 K	45.91
336.41 K	55.17
341.18 K	65.07
345.57 K	75.44
349.33 K	85.31
352.88 K	95.59
354.55 K	100.75
354.67 K	101.12
357.56 K	110.61
360.94 K	122.63
361.61 K	125.13
368.97 K	155.33
371.74 K	168.12
373.17 K	175.04
378.81 K	204.59
384.11 K	235.79
394.29 K	306.28
405.24 K	399.5
415.21 K	502.67
423.68 K	605.6
431.12 K	708.99
437.3 K	804.86
443.5 K	910.82
449.6 K	1025.5
455.74 K	1152
461.87 K	1290.2
468.37 K	1450.3
474.05 K	1602.6
479.15 K	1749.8
484.77 K	1923.9
490.37 K	2110.8
495.75 K	2303.5
501.48 K	2523.7
506.92 K	2748
512.61 K	2999.2
518.01 K	3254.1
523.15 K	3512.9
527.79 K	3760.4
532.08 K	4001.5
535.03 K	4174.6
